Assay results published in ChEMBL document CHEMBL2203107, “Microwave-assisted synthesis and in vitro antibacterial activity of novel steroidal thiosemicarbazone derivatives” (Bioorg Med Chem Lett, 2012).
≈ marks a conversion by molar mass, not a printed value.

Assays:
Pseudomonas aeruginosa = assay: Antibacterial activity against Pseudomonas aeruginosa after 18 hrs by macrodilution method; assay type: functional
Bacillus subtilis = assay: Antibacterial activity against Bacillus subtilis after 18 hrs by macrodilution method; assay type: functional
Staphylococcus aureus [1] = assay: Antibacterial activity against Staphylococcus aureus after 18 hrs by macrodilution method; assay type: functional
Staphylococcus aureus [2] = assay: Antibacterial activity against Staphylococcus aureus; assay type: functional, organism-based

Row | SMILES | MIC (Pseudomonas aeruginosa) [µg/mL] | MIC (Bacillus subtilis) [µg/mL] | MIC (Staphylococcus aureus [1]) [µg/mL] | IC50 (Staphylococcus aureus [2]) [µg/mL]
1 | COC(=O)CC[C@@H](C)[C@H]1CC[C@H]2[C@@H]3C/C(=N/NC(=S)Nc4ccc(Br)cc4)[C@@H]4C/C(=N/NC(=S)Nc5ccc(Br)cc5)CC[C@]4(C)[C@H]3CC[C@]12C | 2 (≈ 2.33 µM) | 128 (≈ 149 µM) | 64 (≈ 74.5 µM) | 
2 | CC1(C)S[C@@H]2[C@H](NC(=O)[C@H](N)c3ccc(O)cc3)C(=O)N2[C@H]1C(=O)O [AMOXICILLIN] | 2 (≈ 5.47 µM) | 16 (≈ 43.8 µM) | 32 (≈ 87.6 µM) | 2.84 (≈ 7.77 µM)
3 | COC(=O)CC[C@@H](C)[C@H]1CC[C@H]2[C@@H]3C(=O)C[C@@H]4C/C(=N/NC(=S)Nc5ccc(OC)cc5)CC[C@]4(C)[C@H]3CC[C@]12C | 128 (≈ 220 µM) | 32 (≈ 55 µM) | 128 (≈ 220 µM) | 
4 | COC(=O)CC[C@@H](C)[C@H]1CC[C@H]2[C@@H]3C/C(=N/NC(=S)Nc4cccc(F)c4)[C@@H]4C/C(=N/NC(=S)Nc5cccc(F)c5)CC[C@]4(C)[C@H]3CC[C@]12C | 128 (≈ 174 µM) | 128 (≈ 174 µM) | 32 (≈ 43.4 µM) | 
5 | COC(=O)CC[C@@H](C)[C@H]1CC[C@H]2[C@@H]3/C(=N/NC(=S)Nc4ccccc4)C[C@@H]4C/C(=N/NC(=S)Nc5ccccc5)CC[C@]4(C)[C@H]3CC[C@]12C | 8 (≈ 11.4 µM) | 128 (≈ 183 µM) | > 128 | 
6 | COC(=O)CC[C@@H](C)[C@H]1CC[C@H]2[C@@H]3/C(=N/NC(=S)Nc4ccc(OC)cc4)C[C@@H]4C/C(=N/NC(=S)Nc5ccc(OC)cc5)CC[C@]4(C)[C@H]3CC[C@]12C | 4 (≈ 5.26 µM) | > 128 | 64 (≈ 84.1 µM) | 3.25 (≈ 4.27 µM)
7 | COC(=O)CC[C@@H](C)[C@H]1CC[C@H]2[C@@H]3C/C(=N/NC(=S)Nc4ccc(C)cc4)[C@@H]4C/C(=N/NC(=S)Nc5ccc(C)cc5)CC[C@]4(C)[C@H]3CC[C@]12C | 4 (≈ 5.49 µM) | 128 (≈ 176 µM) | 128 (≈ 176 µM) | 
8 | COC(=O)CC[C@@H](C)[C@H]1CC[C@H]2[C@@H]3C/C(=N/NC(=S)Nc4ccc(OC)cc4)[C@@H]4C/C(=N/NC(=S)Nc5ccc(OC)cc5)CC[C@]4(C)[C@H]3CC[C@]12C | 4 (≈ 5.26 µM) | 128 (≈ 168 µM) | 32 (≈ 42 µM) | 
9 | COC(=O)CC[C@@H](C)[C@H]1CC[C@H]2[C@@H]3/C(=N/NC(=S)Nc4ccc(Br)cc4)C[C@@H]4C/C(=N/NC(=S)Nc5ccc(Br)cc5)CC[C@]4(C)[C@H]3CC[C@]12C | 16 (≈ 18.6 µM) | > 128 | 32 (≈ 37.3 µM) | 2.85 (≈ 3.32 µM)
10 | COC(=O)CC[C@@H](C)[C@H]1CC[C@H]2[C@@H]3/C(=N/NC(=S)Nc4cccc(F)c4)C[C@@H]4C/C(=N/NC(=S)Nc5cccc(F)c5)CC[C@]4(C)[C@H]3CC[C@]12C | 32 (≈ 43.4 µM) | 8 (≈ 10.9 µM) | 8 (≈ 10.9 µM) | 1.02 (≈ 1.38 µM)

Results, then the molecule that gave them:

Row | MIC (Pseudomonas aeruginosa) [µg/mL] | MIC (Bacillus subtilis) [µg/mL] | MIC (Staphylococcus aureus [1]) [µg/mL] | IC50 (Staphylococcus aureus [2]) [µg/mL] | SMILES
11 | 4 (≈ 7.02 µM) | > 128 | > 128 |  | COC(=O)CC[C@@H](C)[C@H]1CC[C@H]2[C@@H]3CC[C@@H]4C/C(=N/NC(=S)Nc5ccc(F)cc5)CC[C@]4(C)[C@H]3CC(=O)[C@]12C
12 | 2 (≈ 3.17 µM) | > 128 | > 128 |  | COC(=O)CC[C@@H](C)[C@H]1CC[C@H]2[C@@H]3CC[C@@H]4C/C(=N/NC(=S)Nc5ccc(Br)cc5)CC[C@]4(C)[C@H]3CC(=O)[C@]12C
13 | 128 (≈ 225 µM) | 128 (≈ 225 µM) | 128 (≈ 225 µM) |  | COC(=O)CC[C@@H](C)[C@H]1CC[C@H]2[C@@H]3C(=O)C[C@@H]4C/C(=N/NC(=S)Nc5ccc(F)cc5)CC[C@]4(C)[C@H]3CC[C@]12C
14 | 16 (≈ 28.3 µM) | 32 (≈ 56.6 µM) | > 128 |  | COC(=O)CC[C@@H](C)[C@H]1CC[C@H]2[C@@H]3C(=O)C[C@@H]4C/C(=N/NC(=S)Nc5ccc(C)cc5)CC[C@]4(C)[C@H]3CC[C@]12C
15 | 32 (≈ 58 µM) | 64 (≈ 116 µM) | > 128 |  | COC(=O)CC[C@@H](C)[C@H]1CC[C@H]2[C@@H]3CC[C@@H]4C/C(=N/NC(=S)Nc5ccccc5)CC[C@]4(C)[C@H]3CC(=O)[C@]12C
16 | 16 (≈ 26.6 µM) | 32 (≈ 53.2 µM) | > 128 |  | COC(=O)CC[C@@H](C)[C@H]1CC[C@H]2[C@@H]3C(=O)C[C@@H]4C/C(=N/NC(=S)Nc5cccc6ccccc56)CC[C@]4(C)[C@H]3CC[C@]12C
17 | 2 (≈ 3.44 µM) | > 128 | > 128 |  | COC(=O)CC[C@@H](C)[C@H]1CC[C@H]2[C@@H]3CC[C@@H]4C/C(=N/NC(=S)Nc5ccc(OC)cc5)CC[C@]4(C)[C@H]3CC(=O)[C@]12C
